Source: US8198273B2, “Compounds and methods for kinase modulation, and indications therefor” (Plexxikon Inc., priority 2009, dated 2012)

What was measured:
[1] = target: B-Raf V600E (Homo sapiens, UniProt P15056, V600E); assay: B-Raf V600E biochemical kinase inhibition (AlphaScreen, biotin-MEK1 substrate); conditions: 100 μM ATP
Outline: (§1)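 Eight-point compound series (made from a 0.1 mM DMSO stock) tested against each Raf enzyme with biotin-MEK1 substrate and 100 μM final ATP.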

[2] = target: CYP3A4(BFC) (Homo sapiens, UniProt P08684); assay: CYP3A4(BFC) inhibition (fluorescent substrate); format: in vitro ADME; conditions: read-out: Cyp IC50 3A4(BFC)
Outline: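 Compound, from a 100 mM DMSO stock and diluted 1:1 over 10 points in co-factor mix, was incubated at 37° C with enzyme and a known substrate. Decrease in fluorescent product against concentration gave the IC50.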

[3] = tested on: SKMEL2 melanoma cells (Ras mutation); assay: SKMEL2 cell growth inhibition (ATPlite); format: cell-based; conditions: Homo sapiens, SK-MEL-2, 72 h; SKMEL2, 3 days incubation
Outline: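 SKMEL2 cells seeded at 2,000 per well overnight, then exposed to an 8-point 1:3 compound titration (top 10 μM final) for 3 days at 37 °C. ATPlite luminescence used as a measure of cell number to derive IC50.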

[4] = target: c-Raf-1 (Homo sapiens, UniProt P04049); assay: c-Raf-1 biochemical kinase inhibition (AlphaScreen, biotin-MEK1 substrate); conditions: 100 μM ATP
Outline: as §1

Sequence of CYP3A4(BFC) (P08684 whole entry): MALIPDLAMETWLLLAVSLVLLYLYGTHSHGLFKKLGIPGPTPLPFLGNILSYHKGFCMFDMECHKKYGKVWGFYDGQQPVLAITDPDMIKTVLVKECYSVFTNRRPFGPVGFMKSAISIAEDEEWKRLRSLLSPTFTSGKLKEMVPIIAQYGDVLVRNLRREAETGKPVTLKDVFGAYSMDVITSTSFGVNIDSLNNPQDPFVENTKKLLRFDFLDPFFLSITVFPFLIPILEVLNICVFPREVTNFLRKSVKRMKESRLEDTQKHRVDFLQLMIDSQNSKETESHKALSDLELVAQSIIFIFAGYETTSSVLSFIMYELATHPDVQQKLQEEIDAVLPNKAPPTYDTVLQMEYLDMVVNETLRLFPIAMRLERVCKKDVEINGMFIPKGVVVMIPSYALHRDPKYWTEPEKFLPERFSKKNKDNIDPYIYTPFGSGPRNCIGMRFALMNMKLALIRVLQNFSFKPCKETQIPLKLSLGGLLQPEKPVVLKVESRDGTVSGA
Sequence of c-Raf-1 (P04049 whole entry): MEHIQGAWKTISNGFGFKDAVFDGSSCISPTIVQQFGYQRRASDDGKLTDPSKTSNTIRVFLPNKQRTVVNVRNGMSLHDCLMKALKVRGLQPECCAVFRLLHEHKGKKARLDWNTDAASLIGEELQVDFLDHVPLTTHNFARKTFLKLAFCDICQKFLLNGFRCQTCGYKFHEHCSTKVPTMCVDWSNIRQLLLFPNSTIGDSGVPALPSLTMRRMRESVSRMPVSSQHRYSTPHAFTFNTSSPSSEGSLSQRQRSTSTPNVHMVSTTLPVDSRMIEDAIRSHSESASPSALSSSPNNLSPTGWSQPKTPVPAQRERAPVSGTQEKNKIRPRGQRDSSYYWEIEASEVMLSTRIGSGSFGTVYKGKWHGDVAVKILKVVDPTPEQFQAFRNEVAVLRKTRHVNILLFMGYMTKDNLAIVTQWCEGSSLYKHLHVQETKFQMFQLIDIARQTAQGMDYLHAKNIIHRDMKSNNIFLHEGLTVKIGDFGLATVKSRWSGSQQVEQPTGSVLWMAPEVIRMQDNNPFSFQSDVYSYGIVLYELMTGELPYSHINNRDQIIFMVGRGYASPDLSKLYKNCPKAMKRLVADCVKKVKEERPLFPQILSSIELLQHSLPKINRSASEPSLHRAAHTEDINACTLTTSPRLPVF
Sequence of B-Raf V600E (P15056 whole entry V600E): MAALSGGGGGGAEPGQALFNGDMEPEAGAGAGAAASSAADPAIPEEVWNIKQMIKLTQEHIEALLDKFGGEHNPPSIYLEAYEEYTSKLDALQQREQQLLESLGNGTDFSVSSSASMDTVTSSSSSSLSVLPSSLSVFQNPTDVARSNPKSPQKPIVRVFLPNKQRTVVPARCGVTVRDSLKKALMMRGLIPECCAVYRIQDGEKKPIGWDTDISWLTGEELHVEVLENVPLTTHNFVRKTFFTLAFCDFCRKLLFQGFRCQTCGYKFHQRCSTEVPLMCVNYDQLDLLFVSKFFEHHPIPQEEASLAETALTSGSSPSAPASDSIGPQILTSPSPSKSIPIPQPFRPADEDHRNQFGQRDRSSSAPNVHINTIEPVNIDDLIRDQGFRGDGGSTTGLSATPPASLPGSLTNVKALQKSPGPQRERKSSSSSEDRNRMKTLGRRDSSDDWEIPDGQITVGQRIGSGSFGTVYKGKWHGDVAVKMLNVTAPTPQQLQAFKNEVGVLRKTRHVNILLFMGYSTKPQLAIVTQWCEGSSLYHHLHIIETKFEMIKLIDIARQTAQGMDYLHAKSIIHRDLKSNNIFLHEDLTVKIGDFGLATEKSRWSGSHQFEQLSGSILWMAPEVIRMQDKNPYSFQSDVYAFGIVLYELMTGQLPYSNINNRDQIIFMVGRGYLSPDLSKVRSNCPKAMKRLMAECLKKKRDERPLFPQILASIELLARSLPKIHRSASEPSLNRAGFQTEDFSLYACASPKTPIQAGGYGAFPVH

Compound | IC50 [1] [µM] | IC50 [2] [µM] | IC50 [3] [µM] | IC50 [4] [µM]
CCCS(=O)(=O)Nc1ccc(F)c(C(=O)c2c[nH]c3ncc(-c4ccc(F)nc4)cc23)c1F [P-2155, Propane-1-sulfonic acid {2,4-difluoro-3-[5-(6-fluoro-pyridin-3-yl)-1H-pyrrolo[2,3-b]pyridine-3-carbonyl]-phenyl}-amide] | < 0.01 | > 10 | < 20 | < 0.01
CCCS(=O)(=O)Nc1ccc(F)c(C(=O)c2c[nH]c3ncc(-c4cncnc4)cc23)c1F [P-2162, Propane-1-sulfonic acid [2,4-difluoro-3-(5-pyrimidin-5-yl-1H-pyrrolo[2,3-b]pyridine-3-carbonyl)-phenyl]-amide] | < 0.01 | 5 to 10 | < 10 | < 0.01
CCCS(=O)(=O)Nc1ccc(F)c(C(=O)c2c[nH]c3ncc(-c4ccc(NS(C)(=O)=O)cc4)cc23)c1F [P-2165, Propane-1-sulfonic acid {2,4-difluoro-3-[5-(4-methanesulfonylamino-phenyl)-1H-pyrrolo[2,3-b]pyridine-3-carbonyl]-phenyl}-amide] | < 0.01 | > 10 | < 10 | < 0.01
CCCS(=O)(=O)Nc1ccc(F)c(C(=O)c2c[nH]c3ncc(-c4ccc(S(=O)(=O)N5CCOCC5)cc4)cc23)c1F [P-2166, Propane-1-sulfonic acid (2,4-difluoro-3-{5-[4-(morpholine-4-sulfonyl)-phenyl]-1H-pyrrolo[2,3-b]pyridine-3-carbonyl}-phenyl)-amide] | < 0.01 | > 10 | < 5 | < 0.01
CCCS(=O)(=O)Nc1ccc(F)c(C(=O)c2c[nH]c3ncc(-c4ccc(S(=O)(=O)NC)cc4)cc23)c1F [P-2167, 4-{3-[2,6-Difluoro-3-(propane-1-sulfonylamino)-benzoyl]-1H-pyrrolo[2,3-b]pyridin-5-yl}-N-methyl-benzenesulfonamide] | < 0.01 | > 10 | < 5 | < 0.01
CCCS(=O)(=O)Nc1ccc(F)c(C(=O)c2c[nH]c3ncc(-c4cn[nH]c4)cc23)c1F [P-2174, Propane-1-sulfonic acid {2,4-difluoro-3-[5-(1H-pyrazol-4-yl)-1H-pyrrolo[2,3-b]pyridine-3-carbonyl]-phenyl}-amide] | < 0.01 | > 10 | < 10 | < 0.01
CCCS(=O)(=O)Nc1ccc(F)c(C(=O)c2c[nH]c3ncc(-c4ccc(OCCCN(C)C)nc4)cc23)c1F [P-2178, Propane-1-sulfonic acid (3-{5-[6-(3-dimethylamino-propoxy)-pyridin-3-yl]-1H-pyrrolo[2,3-b]pyridine-3-carbonyl}-2,4-difluoro-phenyl)-amide] | < 0.01 | > 10 | < 5 | < 0.01
CCCS(=O)(=O)Nc1ccc(F)c(C(=O)c2c[nH]c3ncc(-c4ccc(S(=O)(=O)N(C)C)cc4)cc23)c1F [P-2185, 4-{3-[2,6-Difluoro-3-(propane-1-sulfonylamino)-benzoyl]-1H-pyrrolo[2,3-b]pyridin-5-yl}-N,N-dimethyl-benzenesulfonamide] | < 0.01 | > 10 | > 10 | < 0.01
CCCS(=O)(=O)Nc1ccc(F)c(C(=O)c2c[nH]c3ncc(-c4cnc(SC)nc4)cc23)c1F [P-2189, Propane-1-sulfonic acid {2,4-difluoro-3-[5-(2-methylsulfanyl-pyrimidin-5-yl)-1H-pyrrolo[2,3-b]pyridine-3-carbonyl]-phenyl}-amide] | < 0.01 | > 10 | < 10 | < 0.01
CCCS(=O)(=O)Nc1ccc(F)c(C(=O)c2c[nH]c3ncc(-c4ccc(NC(C)=O)nc4)cc23)c1F [P-2193, N-(5-{3-[2,6-Difluoro-3-(propane-1-sulfonylamino)-benzoyl]-1H-pyrrolo[2,3-b]pyridin-5-yl}-pyridin-2-yl)-acetamide] | < 0.01 | 5 to 10 | > 10 | < 0.01
CCCS(=O)(=O)Nc1ccc(F)c(C(=O)c2c[nH]c3ncc(-c4cnc(N(C)C)nc4)cc23)c1F [P-2196, Propane-1-sulfonic acid {3-[5-(2-dimethylamino-pyrimidin-5-yl)-1H-pyrrolo[2,3-b]pyridine-3-carbonyl]-2,4-difluoro-phenyl}-amide] | < 0.01 | < 5 | > 10 | < 0.01
CCCS(=O)(=O)Nc1ccc(F)c(C(=O)c2c[nH]c3ncc(-c4cnc(C)nc4)cc23)c1F [P-2211, Propane-1-sulfonic acid {2,4-difluoro-3-[5-(2-methyl-pyrimidin-5-yl)-1H-pyrrolo[2,3-b]pyridine-3-carbonyl]-phenyl}-amide] | < 0.01 | > 10 | > 10 | < 0.01
CCCS(=O)(=O)Nc1ccc(F)c(C(=O)c2c[nH]c3ncc(-c4ccc(C)nc4)cc23)c1F [P-2213, Propane-1-sulfonic acid {2,4-difluoro-3-[5-(6-methyl-pyridin-3-yl)-1H-pyrrolo[2,3-b]pyridine-3-carbonyl]-phenyl}-amide] | < 0.01 | > 10 | > 10 | < 0.01
CCCS(=O)(=O)Nc1ccc(F)c(C(=O)c2c[nH]c3ncc(-c4ccc(N)nc4)cc23)c1F [P-2214, Propane-1-sulfonic acid {3-[5-(6-amino-pyridin-3-yl)-1H-pyrrolo[2,3-b]pyridine-3-carbonyl]-2,4-difluoro-phenyl}-amide] | < 0.01 | > 10 | > 10 | < 0.01
CCCS(=O)(=O)Nc1ccc(F)c(C(=O)c2c[nH]c3ncc(-c4ccc(S(=O)(=O)CC)cc4)cc23)c1F [P-2218, Propane-1-sulfonic acid {3-[5-(4-ethanesulfonyl-phenyl)-1H-pyrrolo[2,3-b]pyridine-3-carbonyl]-2,4-difluoro-phenyl}-amide] | < 0.1 | > 10 | > 10 | < 0.1
CCCS(=O)(=O)Nc1ccc(F)c(C(=O)c2c[nH]c3ncc(C#CCOC)cc23)c1F [P-2239, Propane-1-sulfonic acid {2,4-difluoro-3-[5-(3-methoxy-prop-1-ynyl)-1H-pyrrolo[2,3-b]pyridine-3-carbonyl]-phenyl}-amide] | < 0.01 | 5 to 10 | < 20 | < 0.01
CCCS(=O)(=O)Nc1cccc(C(=O)c2c[nH]c3ncc(-c4cnc(OC)nc4)cc23)c1F [P-2407, Propane-1-sulfonic acid {2-fluoro-3-[5-(2-methoxy-pyrimidin-5-yl)-1H-pyrrolo[2,3-b]pyridine-3-carbonyl]-phenyl}-amide] | < 0.01 | > 10 | < 20 | < 0.01
